Data: PubChem BioAssay (NCI)
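48-hour exposure; five concentrations; linearly interpolated endpoints. Abbreviation: GI50, concentration required for 50% inhibition of growth. At the TGI there is no net growth.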

Columns and labels:
Assay in all cases: DTP human tumour cell line panel, 48 h
SK-MEL-5 melanoma = system: SK-MEL-5 melanoma
EKVX NSCLC = system: EKVX NSCLC
OVCAR-8 ovarian = system: OVCAR-8 ovarian
NCI-H23 lung = system: NCI-H23 lung
NCI-H226 lung = system: NCI-H226 lung
IGROV1 ovarian = system: IGROV1 ovarian
CCRF-CEM leukemia = system: CCRF-CEM leukemia
RXF 393 renal = system: RXF 393 renal
HCT-15 colon = system: HCT-15 colon
PC-3 prostate = system: PC-3 prostate

SMILES | GI50 (SK-MEL-5 melanoma) | TGI (SK-MEL-5 melanoma) | GI50 (EKVX NSCLC) | TGI (EKVX NSCLC) | GI50 (OVCAR-8 ovarian) | TGI (OVCAR-8 ovarian) | GI50 (NCI-H23 lung) | TGI (NCI-H23 lung) | GI50 (NCI-H226 lung) | TGI (NCI-H226 lung) | GI50 (IGROV1 ovarian) | TGI (IGROV1 ovarian) | GI50 (CCRF-CEM leukemia) | TGI (CCRF-CEM leukemia) | GI50 (RXF 393 renal) | TGI (RXF 393 renal) | GI50 (HCT-15 colon) | TGI (HCT-15 colon) | TGI (PC-3 prostate) | GI50 (PC-3 prostate)
N.N.N.N.N.[Cl-].[Co+3].c1ccc(-c2nn[n-]n2)cc1 | > 100 µM | > 100 µM | > 100 µM | > 100 µM | > 100 µM | > 100 µM | > 100 µM | > 100 µM | > 100 µM | > 100 µM | > 100 µM | > 100 µM | > 100000 nM | > 100 µM | > 100 µM | > 100 µM | > 100000 nM | > 100 µM |  | 
CC(=O)NNc1nc(C)c(C(=O)/C=C/c2ccccc2Cl)s1 |  | > 100 µM |  | > 100 µM |  | > 100 µM |  | > 100 µM |  | > 100 µM |  | > 100 µM |  | > 100 µM |  | > 100 µM |  | > 100 µM |  | 
COC(=O)C(C#CCCCCC#CC(NC(=O)OCc1ccccc1)(C(=O)OC)C(F)(F)F)(NC(=O)OCc1ccccc1)C(F)(F)F (stereo not given) |  | > 100 µM |  | > 100 µM |  | > 100 µM |  | > 100 µM |  | > 100 µM |  | > 100 µM |  | > 100 µM |  | > 100 µM |  | > 100 µM |  | 
c1ccc(CN2CCC3(CC2)SSC2(CCN(Cc4ccccc4)CC2)S3)cc1 |  |  |  |  |  | > 100 µM |  | > 100 µM |  |  |  | > 100 µM |  | > 100 µM |  |  |  | > 100 µM | > 100 µM | 
Cc1ccc([N+](=O)[O-])cc1NC(=O)/C(=N/NC(=S)NN)C1SC(=S)NC1=O (stereo not given) |  | > 100 µM |  | > 100 µM |  | > 100 µM |  | > 100 µM |  | > 100 µM |  | > 100 µM |  | > 100 µM |  | > 100 µM |  | > 100 µM |  | 
COc1cc([C@@H]2c3cc4c(cc3[C@@H](OC(=O)c3ccc(N)cc3)C3COC(=O)[C@@H]32)OCO4)cc(OC)c1O (stereo not given in full) |  | 16.7 µM |  | > 95 µM |  | 78.5 µM |  | 14.4 µM |  | 33.6 µM |  | 17.3 µM |  | > 95 µM |  | > 95 µM |  | 56.1 µM |  | 
O=C(CC(=O)C1=CNc2ccccc2S1)C(=O)Nc1ccc(Cl)cc1 |  | > 50 µM |  | > 50 µM |  | > 50 µM |  | > 50 µM |  | > 50 µM |  | > 50 µM |  | > 50 µM |  | > 50 µM |  | > 50 µM |  | 
C1=CC=C2NCCCCCCCNC3=CC=CC=CC3=NCCCCCCCN=C2C=C1 |  |  |  | > 100 µM |  | > 100 µM |  | > 100 µM |  | > 100 µM |  |  |  | > 100 µM |  | 39.5 µM |  | > 100 µM |  | 
COC1OC(CBr)C(OC(=O)c2ccccc2)C(O)C1Br (stereo not given) |  | > 100 µM |  |  |  | > 100 µM |  | > 100 µM |  | > 100 µM |  | > 10 µM |  | > 100 µM |  | > 100 µM |  | > 100 µM |  | 
C[C@]12CCC(=O)C=C1CC[C@@H]1C2CC[C@]2(C)Nc3c(cnn3-c3ccccc3)CC12 (stereo not given in full) |  | > 100 µM |  | > 100 µM |  | > 100 µM |  | > 100 µM |  | > 100 µM |  | > 100 µM |  | > 100 µM |  | > 100 µM |  | > 100 µM |  | 
O=C(O/C(=C(/N=Nc1ccccc1)c1ccccc1)c1ccccc1)c1ccccc1 |  | > 100 µM |  | > 100 µM |  | > 100 µM |  | > 100 µM |  | > 100 µM |  | > 100 µM |  |  |  | > 100 µM |  | > 100 µM |  | 
O=C(NC(=O)c1cn(CCN(CCO)C(=O)NCCCCCCNC(=O)N(CCO)CCn2cc(C(=O)NC(=O)OCc3ccccc3)c(=O)[nH]c2=O)c(=O)[nH]c1=O)OCc1ccccc1 |  | > 100 µM |  | > 100 µM |  | > 100 µM |  | > 100 µM |  |  |  | > 100 µM |  | > 100 µM |  | > 100 µM |  | > 100 µM |  | 
COc1ccc2c(c1)[n+]([O-])c(-c1ccc(OC)c(OC)c1)c(N)[n+]2[O-] |  | 83 µM |  | > 100 µM |  | > 100 µM |  | 57 µM |  | > 100 µM |  | > 100 µM |  | > 100 µM |  |  |  | > 100 µM |  | 
O=C1C2C3C=C4c5ccccc5N(c5ccccc5)C4(C2C(=O)N1c1ccc(Cl)cc1)[C@H]1C(=O)N(c2ccc(Cl)cc2)C(=O)[C@@H]31 (stereo not given in full) |  | > 100 µM |  | > 100 µM |  | > 100 µM |  | > 100 µM |  | > 100 µM |  | > 100 µM |  | > 100 µM |  | > 100 µM |  | > 100 µM |  | 
NC(=O)c1ccc(I)c(N=O)c1 | 34.2 µM | > 100 µM | 81.1 µM | > 100 µM | 25.8 µM | 60.6 µM | 51.7 µM | > 100 µM | 58.8 µM | > 100 µM | 26.7 µM | 86.4 µM | 40500 nM | > 100 µM | 28.7 µM | 66 µM | 30000 nM | > 100 µM |  | 
COc1ccc2c(=O)cc(-c3ccncc3)oc2c1OC |  | 56.8 µM |  | > 100 µM |  | > 100 µM |  | > 100 µM |  |  |  | 78.1 µM |  | 71.1 µM |  | 69.6 µM |  | > 100 µM | > 100 µM | 
COc1cccc2c1ccc1nc3cccc(C(=O)N[C@H](C)CN(C)C)c3nc12 | 0.125 µM | 0.342 µM | 0.141 µM | 3.16 µM | 0.0528 µM | 9.5 µM | 0.0929 µM | 0.382 µM |  |  | 0.0549 µM | 11.9 µM | 120 nM | 7 µM | 0.0984 µM | 0.35 µM | 53 nM | 10.8 µM | 2.13 µM | 0.0819 µM
COc1cccc(-c2nn(-c3ccccc3)cc2-c2ccnc(NCCCNC(=O)Nc3ccc(Cl)c(Cl)c3)c2)c1 | 1.75 µM | 3.32 µM | 3.51 µM | 17.5 µM | 3.22 µM | 13.4 µM | 3.16 µM | 13.9 µM | 5.61 µM | 41.6 µM | 4.24 µM | 19.4 µM |  |  | 1.81 µM | 4.87 µM | 2400 nM | 6.66 µM | 22.4 µM | 3.96 µM
CCCc1cc(=O)[nH]c(-n2nc(C)cc2C)n1 | 3.18 µM | 47.6 µM |  |  | 2.41 µM | > 100 µM |  |  | 5.99 µM | 55.6 µM | 2.31 µM | > 100 µM | 1590 nM | 26.5 µM | 18.6 µM | > 100 µM | 1750 nM | > 100 µM | > 100 µM | 4.29 µM
